Source: PubChem BioAssay AID1963827 (Molecular Pharmacology Branch, DTP, NCI, 2024)
pIC50: −log10 of the molar value.

Tested on: 994946-033-R-J1-PDC complex spheroid viability
Experiment: Anticancer human tumor 994946-033-R-J1-PDC patient-derived melanoma cell line growth inhibition [POLQ]
Conditions: for pIC50: curve of first compound; for viability, T/C: stronger effect = lower value
Procedure, shortened: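 Three-cell-type spheroids modelling solid tumor plus stroma served as the readout system; POL inhibitors were tested individually and in combination, concentration ranges set by clinical Cmax where known.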

[1] = second compound 0.0316 µM, first compound 0.00316 µM
[2] = second compound 0.0316 µM, first compound 0.01 µM
[3] = second compound 0.0316 µM, first compound 0.0316 µM
[4] = second compound 0.0316 µM, first compound 0.1 µM
[5] = second compound 0.0316 µM, first compound 0.316 µM
[6] = second compound 0.0316 µM, first compound 1 µM
[7] = second compound 0.1 µM, first compound 0.00316 µM
[8] = second compound 0.1 µM, first compound 0.01 µM
[9] = second compound 0.1 µM, first compound 0.0316 µM
[10] = second compound 0.1 µM, first compound 0.1 µM
[11] = second compound 0.1 µM, first compound 0.316 µM
[12] = second compound 0.1 µM, first compound 1 µM
[13] = second compound 0.316 µM, first compound 0.00316 µM
[14] = second compound 0.316 µM, first compound 0.01 µM
[15] = second compound 0.316 µM, first compound 0.0316 µM
[16] = second compound 0.316 µM, first compound 0.1 µM
[17] = second compound 0.316 µM, first compound 0.316 µM
[18] = second compound 0.316 µM, first compound 1 µM
[19] = second compound 1 µM, first compound 0.00316 µM
[20] = second compound 1 µM, first compound 0.01 µM
[21] = second compound 1 µM, first compound 0.0316 µM
[22] = second compound 1 µM, first compound 0.1 µM
[23] = second compound 1 µM, first compound 0.316 µM
[24] = second compound 1 µM, first compound 1 µM
[25] = second compound 3.16 µM, first compound 0.00316 µM
[26] = second compound 3.16 µM, first compound 0.01 µM
[27] = second compound 3.16 µM, first compound 0.0316 µM
[28] = second compound 3.16 µM, first compound 0.1 µM
[29] = second compound 3.16 µM, first compound 0.316 µM
[30] = second compound 3.16 µM, first compound 1 µM
[31] = second compound 10 µM, first compound 0.00316 µM
[32] = second compound 10 µM, first compound 0.01 µM
[33] = second compound 10 µM, first compound 0.0316 µM
[34] = second compound 10 µM, first compound 0.1 µM
[35] = second compound 10 µM, first compound 0.316 µM
[36] = second compound 10 µM, first compound 1 µM
[37] = second compound 0.0316 µM, first compound 3.16 µM
[38] = second compound 0.0316 µM, first compound 10 µM
[39] = second compound 0.1 µM, first compound 3.16 µM
[40] = second compound 0.1 µM, first compound 10 µM
[41] = second compound 0.316 µM, first compound 3.16 µM
[42] = second compound 0.316 µM, first compound 10 µM
[43] = second compound 1 µM, first compound 3.16 µM
[44] = second compound 1 µM, first compound 10 µM
[45] = second compound 3.16 µM, first compound 3.16 µM
[46] = second compound 3.16 µM, first compound 10 µM
[47] = second compound 10 µM, first compound 3.16 µM
[48] = second compound 10 µM, first compound 10 µM
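Note: spheroids exposed to drugs for 7 days.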
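Throughout, for viability, T/C: 100% = DMSO vehicle treated spheroids.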

CCc1c2c(nc3ccc(O)cc13)-c1cc3c(c(=O)n1C2)COC(=O)[C@]3(O)CC + COC1C(OC(N)=O)C(O)C(Oc2ccc3c(O)c(NC(=O)c4ccc(O)c(CC=C(C)C)c4)c(=O)oc3c2C)OC1(C)C
pIC50 (second compound 0.0316 µM): > 8.50 | pIC50 (second compound 0.1 µM): > 8.50 | pIC50 (second compound 0.316 µM): > 8.50 | pIC50 (second compound 1 µM): > 8.50 | pIC50 (second compound 3.16 µM): > 8.50 | pIC50 (second compound 10 µM): > 8.50 | viability, T/C [1]: 21.2% | viability, T/C [2]: 10.5% | viability, T/C [3]: 5.04% | viability, T/C [4]: 6.46% | viability, T/C [5]: 4.53% | viability, T/C [6]: 1.07% | viability, T/C [7]: 14.8% | viability, T/C [8]: 7.14% | viability, T/C [9]: 4.91% | viability, T/C [10]: 4.35% | viability, T/C [11]: 3.22% | viability, T/C [12]: 0.99% | viability, T/C [13]: 20.7% | viability, T/C [14]: 8.29% | viability, T/C [15]: 4.94% | viability, T/C [16]: 5% | viability, T/C [17]: 3.67% | viability, T/C [18]: 0.92% | viability, T/C [19]: 21.2% | viability, T/C [20]: 8.21% | viability, T/C [21]: 5.36% | viability, T/C [22]: 4.87% | viability, T/C [23]: 3% | viability, T/C [24]: 0.93% | viability, T/C [25]: 17.8% | viability, T/C [26]: 9.17% | viability, T/C [27]: 4.15% | viability, T/C [28]: 4.13% | viability, T/C [29]: 3.2% | viability, T/C [30]: 0.9% | viability, T/C [31]: 16.8% | viability, T/C [32]: 6.62% | viability, T/C [33]: 5.93% | viability, T/C [34]: 4.77% | viability, T/C [35]: 2.81% | viability, T/C [36]: 1.02%

COc1ccc([C@@H](O)c2cc(-c3ncnc4cc(N5CCOCC5)ccc34)c(F)cc2Cl)nn1 + Nc1ccc(C#CCN(C(=O)Cc2ncc(C(F)(F)F)cc2C(F)(F)F)c2ccc(F)cc2)nn1
pIC50 (second compound 0.0316 µM): 5.30 | pIC50 (second compound 0.1 µM): 5.17 | pIC50 (second compound 0.316 µM): 5.50 | pIC50 (second compound 1 µM): < 5.00 | pIC50 (second compound 3.16 µM): 5.15 | pIC50 (second compound 10 µM): 5.34 | viability, T/C [3]: 90.3% | viability, T/C [4]: 114% | viability, T/C [5]: 75.5% | viability, T/C [6]: 89% | viability, T/C [37]: 52.8% | viability, T/C [38]: 45.2% | viability, T/C [9]: 91.6% | viability, T/C [10]: 112% | viability, T/C [11]: 99.4% | viability, T/C [12]: 98.7% | viability, T/C [39]: 62% | viability, T/C [40]: 44.1% | viability, T/C [15]: 93.3% | viability, T/C [16]: 111% | viability, T/C [17]: 116% | viability, T/C [18]: 90.6% | viability, T/C [41]: 50.7% | viability, T/C [42]: 37.3% | viability, T/C [21]: 114% | viability, T/C [22]: 117% | viability, T/C [23]: 115% | viability, T/C [24]: 61.4% | viability, T/C [43]: 64.5% | viability, T/C [44]: 55.1% | viability, T/C [27]: 109% | viability, T/C [28]: 87% | viability, T/C [29]: 102% | viability, T/C [30]: 91.3% | viability, T/C [45]: 67.5% | viability, T/C [46]: 42.5% | viability, T/C [33]: 116% | viability, T/C [34]: 126% | viability, T/C [35]: 102% | viability, T/C [36]: 75.7% | viability, T/C [47]: 62.2% | viability, T/C [48]: 34%

COc1cc(C2c3cc4c(cc3C(OC3OC5COC(C)OC5C(O)C3O)C3COC(=O)C23)OCO4)cc(OC)c1O (stereo not drawn) + Cc1cccc(N(C)C(=O)C2C(O)CCN2c2nc(C)cc(C(F)(F)F)c2C#N)c1
pIC50 (second compound 0.0316 µM): 6.74 | pIC50 (second compound 0.1 µM): 6.79 | pIC50 (second compound 0.316 µM): 6.60 | pIC50 (second compound 1 µM): 6.68 | pIC50 (second compound 3.16 µM): 6.41 | pIC50 (second compound 10 µM): 5.90 | viability, T/C [3]: 76.3% | viability, T/C [4]: 55.2% | viability, T/C [5]: 42.6% | viability, T/C [6]: 32.4% | viability, T/C [37]: 14.2% | viability, T/C [38]: 6.56% | viability, T/C [9]: 77.8% | viability, T/C [10]: 47.9% | viability, T/C [11]: 44.9% | viability, T/C [12]: 32.4% | viability, T/C [39]: 10.9% | viability, T/C [40]: 5.27% | viability, T/C [15]: 79.7% | viability, T/C [16]: 63.1% | viability, T/C [17]: 34.4% | viability, T/C [18]: 49.7% | viability, T/C [41]: 12.9% | viability, T/C [42]: 8.08% | viability, T/C [21]: 89.2% | viability, T/C [22]: 49.1% | viability, T/C [23]: 47.2% | viability, T/C [24]: 35.3% | viability, T/C [43]: 13.5% | viability, T/C [44]: 5.19% | viability, T/C [27]: 72.5% | viability, T/C [28]: 64.5% | viability, T/C [29]: 56.8% | viability, T/C [30]: 27.4% | viability, T/C [45]: 14.1% | viability, T/C [46]: 5.31% | viability, T/C [33]: 67.5% | viability, T/C [34]: 45.3% | viability, T/C [35]: 63.3% | viability, T/C [36]: 58.7% | viability, T/C [47]: 14.8% | viability, T/C [48]: 6.96%

CC[C@@]1(O)C(=O)OCc2c1cc1n(c2=O)Cc2cc3c(CN(C)C)c(O)ccc3nc2-1 + COC1C(OC(N)=O)C(O)C(Oc2ccc3c(O)c(NC(=O)c4ccc(O)c(CC=C(C)C)c4)c(=O)oc3c2C)OC1(C)C
pIC50 (second compound 0.0316 µM): 7.67 | pIC50 (second compound 0.1 µM): 7.70 | pIC50 (second compound 0.316 µM): 7.67 | pIC50 (second compound 1 µM): 7.69 | pIC50 (second compound 3.16 µM): 7.75 | pIC50 (second compound 10 µM): 7.69 | viability, T/C (second compound 0.0316 µM, first compound 0.000316 µM): 107% | viability, T/C (second compound 0.0316 µM, first compound 0.001 µM): 69.1% | viability, T/C [1]: 117% | viability, T/C [2]: 77.8% | viability, T/C [3]: 34.3% | viability, T/C [4]: 7.91% | viability, T/C (second compound 0.1 µM, first compound 0.000316 µM): 91.4% | viability, T/C (second compound 0.1 µM, first compound 0.001 µM): 101% | viability, T/C [7]: 109% | viability, T/C [8]: 79.2% | viability, T/C [9]: 29.4% | viability, T/C [10]: 8% | viability, T/C (second compound 0.316 µM, first compound 0.000316 µM): 96.6% | viability, T/C (second compound 0.316 µM, first compound 0.001 µM): 99.6% | viability, T/C [13]: 91.3% | viability, T/C [14]: 86% | viability, T/C [15]: 31.5% | viability, T/C [16]: 11.3% | viability, T/C (second compound 1 µM, first compound 0.000316 µM): 118% | viability, T/C (second compound 1 µM, first compound 0.001 µM): 107% | viability, T/C [19]: 100% | viability, T/C [20]: 81.5% | viability, T/C [21]: 30.4% | viability, T/C [22]: 15.1% | viability, T/C (second compound 3.16 µM, first compound 0.000316 µM): 92.7% | viability, T/C (second compound 3.16 µM, first compound 0.001 µM): 86.5% | viability, T/C [25]: 77% | viability, T/C [26]: 73.1% | viability, T/C [27]: 28% | viability, T/C [28]: 10.2% | viability, T/C (second compound 10 µM, first compound 0.000316 µM): 85.5% | viability, T/C (second compound 10 µM, first compound 0.001 µM): 86.9% | viability, T/C [31]: 85.4% | viability, T/C [32]: 81% | viability, T/C [33]: 30.3% | viability, T/C [34]: 8.24%
